Literature values, collected in patent US8067462B2, “Processes of making sesquiterpenoid tashironin, its analogs and their uses” (The Trustees of Columbia University in the City of New York, priority 2004, dated 2011).

System: neurite growth

Compound	concentration at which neurite growth is promoted (promotes neurite growth at concentrations as low as (Huang et al. 2001)) [µmol]	neurotrophic activity (reported on isolation from the wood of illicium tashiroi (Fukuyama et al. 1995))
C[C@@H]1CC[C@@]2(O)C13CC(=O)C1(C)C2(C)CO[C@]1(O)[C@@H]3O [11-O-debenzoyltashironin]	≥ 0.1	
tashironin		inactive
